Test: xn = mol fraction of the nth substance listed

C1=Cc2cccc3cccc1c23 + CO
viscosity [mPa·s], 101 kPa
Details | 298.15 K | 303.15 K | 308.15 K | 313.15 K | 318.15 K
x1 = 0.00471 | 0.5715 | 0.5301 | 0.494 | 0.4598 | 0.436
x1 = 0.00731 | – | 0.5362 | 0.5036 | 0.4714 | 0.4405

CCCCO + CO
101.33 kPa
Details | viscosity [mPa·s]
298.15 K, x2 = 0.1362 | 2.2
298.15 K, x2 = 0.2224 | 1.966
298.15 K, x2 = 0.302 | 1.768
298.15 K, x2 = 0.409 | 1.528
298.15 K, x2 = 0.5154 | 1.312
298.15 K, x2 = 0.6105 | 1.139
298.15 K, x2 = 0.693 | 0.999
298.15 K, x2 = 0.8012 | 0.833
298.15 K, x2 = 0.9004 | 0.69
303.15 K, x2 = 0.2846 | 1.602
303.15 K, x2 = 0.3614 | 1.45
303.15 K, x2 = 0.4291 | 1.311
303.15 K, x2 = 0.492 | 1.191
303.15 K, x2 = 0.6007 | 1.038
303.15 K, x2 = 0.6929 | 0.8879
303.15 K, x2 = 0.7719 | 0.7812
303.15 K, x2 = 0.8404 | 0.6887
303.15 K, x2 = 0.9003 | 0.6154

CCCCCCCC[N+](C)(CCCCCCCC)CCCCCCCC.[Cl-] + COC(=O)OC
Details | viscosity [mPa·s]
298.15 K, 101 kPa, x1 = 0.65 | 534.7

CCCCOCCOCCOCCCC + COC(=O)OC
viscosity [mPa·s], 101.3 kPa
Details | 298.15 K | 308.15 K | 318.15 K
x1 = 0.0176 | 0.616 | 0.546 | 0.488
x1 = 0.0289 | 0.635 | 0.562 | 0.498
x1 = 0.0543 | 0.678 | 0.599 | 0.523
x1 = 0.0894 | 0.743 | 0.65 | 0.56
x1 = 0.1574 | 0.862 | 0.747 | 0.634
x1 = 0.2414 | 1.012 | 0.867 | 0.726
x1 = 0.3274 | 1.169 | 0.991 | 0.82
x1 = 0.3389 | 1.189 | 1.005 | 0.83
x1 = 0.44 | 1.367 | 1.131 | 0.947
x1 = 0.5417 | 1.518 | 1.266 | 1.043
x1 = 0.636 | 1.653 | 1.377 | 1.125
x1 = 0.7193 | 1.745 | 1.451 | 1.182
x1 = 0.8605 | 1.934 | 1.606 | 1.289
x1 = 0.9421 | 2.047 | 1.677 | 1.351

C=C1CCC2CC1C2(C)C (stereo unspecified) + COC(C)(C)C
298.15 K, 101.33 kPa
Details | viscosity [mPa·s]
x2 = 0.0493 | 1.485
x2 = 0.1076 | 1.364
x2 = 0.2248 | 1.142
x2 = 0.354 | 0.93
x2 = 0.439 | 0.8092
x2 = 0.5239 | 0.7038
x2 = 0.6457 | 0.5826
x2 = 0.7594 | 0.4855
x2 = 0.8663 | 0.41
x2 = 0.9007 | 0.3873
x2 = 0.9651 | 0.3495

Fc1c(F)c(F)c(F)c(F)c1F + CS(C)=O
viscosity [mPa·s], 101 kPa
Details | x2 = 0.1003 | x2 = 0.2029 | x2 = 0.2999 | x2 = 0.4 | x2 = 0.5001 | x2 = 0.5999 | x2 = 0.7 | x2 = 0.8004 | x2 = 0.9
293.15 K | 0.991 | 1.058 | 1.143 | 1.246 | 1.365 | 1.509 | 1.661 | 1.806 | 1.974
303.15 K | 0.833 | 0.891 | 0.961 | 1.05 | 1.144 | 1.267 | 1.386 | 1.513 | 1.641
313.15 K | 0.703 | 0.758 | 0.822 | 0.904 | 0.976 | 1.071 | 1.171 | 1.276 | 1.385
323.15 K | 0.62 | 0.659 | 0.713 | 0.775 | 0.839 | 0.918 | 0.993 | 1.077 | 1.167

OC[C@H]1O[C@@](CO)(O[C@H]2O[C@H](CO)[C@@H](O)[C@H](O)[C@H]2O)[C@@H](O)[C@@H]1O + CS(C)=O
viscosity [mPa·s], 101 kPa
Details | 298.15 K | 308.15 K | 318.15 K
x1 = 0.006451 | 2.4 | 1.962 | 1.63
x1 = 0.01289 | 2.883 | 2.319 | 1.908
x1 = 0.01959 | 3.523 | 2.793 | 2.266
x1 = 0.0336 | 5.532 | 4.214 | 3.309
x1 = 0.04801 | 9.087 | 6.615 | 4.999
x1 = 0.05582 | 12.08 | 8.541 | 6.292
x1 = 0.06395 | 16.4 | 11.28 | 8.055
x1 = 0.07246 | 22.45 | 14.86 | 10.39
x1 = 0.08036 | 30.82 | 19.69 | 13.36
x1 = 0.09752 | 61.59 | 36.46 | 23.02
x1 = 0.1069 | 90.84 | 51.59 | 31.4
x1 = 0.117 | 139.8 | 75.48 | 43.98
x1 = 0.1263 | 211.4 | 109.3 | 61.19

O=C(O)CC(O)C(=O)O (stereo unspecified) + C[C@H](N)C(=O)O
101 kPa, x2 = 0.5
Details | viscosity [mPa·s]
298.15 K | 475400
318.15 K | 32390

O=C(O)CC(O)C(=O)O (stereo unspecified) + C[N+](C)(C)CC(=O)[O-]
Details | viscosity [mPa·s]
318.15 K, 101 kPa, x2 = 0.5 | 42170

C[C@H](O)C(=O)O + C[N+](C)(C)CCO.[Cl-]
101 kPa, x2 = 0.3333
Details | viscosity [mPa·s]
303.15 K | 374.3
313.15 K | 187

O=C(O)CC(O)C(=O)O (stereo unspecified) + C[N+](C)(C)CCO.[Cl-]
Details | viscosity [mPa·s]
293.15 K, 101 kPa, x1 = 0.5 | 24490
293.2 K, 101.3 kPa, x2 = 0.602 | 8896
293.2 K, 101.3 kPa, x2 = 0.666 | 3341
298 K, 101.3 kPa, x2 = 0.5 | 2082
298.15 K, 101 kPa, x1 = 0.5 | 22090
298.15 K, 101.33 kPa, x1 = 0.7 | 530.2
303.15 K, 101 kPa, x1 = 0.5 | 13390
303.2 K, 101.3 kPa, x2 = 0.602 | 5432
303.2 K, 101.3 kPa, x2 = 0.666 | 2810
308.15 K, 101 kPa, x1 = 0.5 | 8995
313.15 K, 101 kPa, x1 = 0.5 | 5859
313.2 K, 101.3 kPa, x2 = 0.505 | 6421
313.2 K, 101.3 kPa, x2 = 0.602 | 2827
313.2 K, 101.3 kPa, x2 = 0.666 | 1676
318.15 K, 101 kPa, x1 = 0.5 | 4121
323 K, 101.3 kPa, x2 = 0.5 | 610
323.15 K, 101 kPa, x1 = 0.5 | 2924

Oc1cccc(O)c1O + C[N+](C)(C)CCO.[Cl-]
viscosity [mPa·s], 101.3 kPa
Details | 293.15 K | 298.15 K | 303.15 K | 308.15 K | 313.15 K | 318.15 K | 323.15 K
x2 = 0.333 | 6400 | 4850 | 3200 | 2000 | 1250 | 800 | 600
x2 = 0.5 | 6100 | 3750 | 2500 | 1500 | 1000 | 750 | 500

C=C1CCC2CC1C2(C)C (stereo unspecified) + Cc1cc(C)cc(C)c1
viscosity [mPa·s], 101 kPa
Details | x2 = 0.2198 | x2 = 0.3257 | x2 = 0.429 | x2 = 0.5299 | x2 = 0.6283 | x2 = 0.7245 | x2 = 0.8185 | x2 = 0.9103
303.15 K | 1.254 | 1.108 | 0.981 | 0.871 | 0.799 | 0.743 | 0.696 | 0.661
308.5 K | 1.167 | 1.032 | 0.915 | 0.819 | 0.749 | 0.695 | 0.653 | 0.622
313.15 K | 1.082 | 0.959 | 0.854 | 0.768 | 0.698 | 0.645 | 0.606 | 0.576

C=C1CCC2CC1C2(C)C (stereo unspecified) + Cc1cccc(C)c1
viscosity [mPa·s], 101 kPa
Details | x2 = 0.2415 | x2 = 0.3531 | x2 = 0.4592 | x2 = 0.5602 | x2 = 0.6564 | x2 = 0.7482 | x2 = 0.8359 | x2 = 0.9198
303.15 K | 1.225 | 1.049 | 0.915 | 0.799 | 0.737 | 0.682 | 0.637 | 0.602
308.5 K | 1.137 | 0.98 | 0.85 | 0.748 | 0.685 | 0.639 | 0.6 | 0.568
313.15 K | 1.05 | 0.91 | 0.787 | 0.697 | 0.637 | 0.593 | 0.563 | 0.542

Fc1c(F)c(F)c(F)c(F)c1F + Cc1cccc(C)n1
viscosity [mPa·s], 101.33 kPa
Details | x2 = 0.091 | x2 = 0.165 | x2 = 0.229 | x2 = 0.283 | x2 = 0.497 | x2 = 0.5 | x2 = 0.712 | x2 = 0.767 | x2 = 0.832 | x2 = 0.908
293.15 K | – | 0.9415 | 0.9457 | – | – | 0.9333 | 0.8943 | 0.8824 | 0.8673 | 0.8549
298.15 K | – | 0.869 | 0.8709 | 0.8665 | 0.8598 | 0.8584 | 0.8268 | 0.8175 | 0.8052 | 0.7928
308.15 K | – | 0.7494 | 0.7485 | 0.7439 | 0.7372 | 0.736 | 0.7137 | 0.7072 | 0.6997 | 0.6916
318.15 K | 0.6629 | 0.6586 | 0.6562 | – | 0.6401 | 0.6401 | 0.6252 | 0.6209 | 0.616 | 0.611

C1=Cc2cccc3cccc1c23 + Cc1ccccc1
viscosity [mPa·s], 101 kPa
Details | 303.15 K | 308.15 K | 313.15 K | 318.15 K
x1 = 0.1292 | 0.6888 | 0.6467 | 0.608 | 0.573
x1 = 0.195 | 0.794 | 0.74 | 0.6961 | 0.6516

C=C1CCC2CC1C2(C)C (stereo unspecified) + Cc1ccccc1
viscosity [mPa·s], 101 kPa
Details | x2 = 0.2689 | x2 = 0.3867 | x2 = 0.4951 | x2 = 0.5953 | x2 = 0.6881 | x2 = 0.7744 | x2 = 0.8547 | x2 = 0.9298
303.15 K | 1.188 | 0.995 | 0.86 | 0.754 | 0.684 | 0.633 | 0.595 | 0.564
308.5 K | 1.112 | 0.93 | 0.803 | 0.703 | 0.642 | 0.595 | 0.565 | 0.536
313.15 K | 1.027 | 0.863 | 0.745 | 0.654 | 0.598 | 0.56 | 0.534 | 0.505

Cc1cccc(N)c1 + Cc1ccccc1
303.15 K, 101.33 kPa
Details | viscosity [mPa·s]
x1 = 0.168 | 0.61
x1 = 0.422 | 0.8
x1 = 0.619 | 1.05
x1 = 0.801 | 1.53

CCCC[N+](CCCC)(CCCC)CCCC.[Br-] + ClC(Cl)(Cl)Cl
303.15 K, 101 kPa
Details | viscosity [mPa·s]
x1 = 0.0245 | 2.46
x1 = 0.026 | 2.59
x1 = 0.0348 | 3.22
x1 = 0.0608 | 7.11
x1 = 0.0946 | 14.33
x1 = 0.1162 | 24.57
x1 = 0.1446 | 36.49
x1 = 0.1666 | 56.17
x1 = 0.1764 | 63.7
x1 = 0.2004 | 101.7
x1 = 0.2171 | 141.8
x1 = 0.2631 | 307.1
x1 = 0.3449 | 1248

C1=Cc2cccc3cccc1c23 + ClC(Cl)Cl
viscosity [mPa·s], 101 kPa
Details | 298.15 K | 303.15 K | 308.15 K | 313.15 K
x1 = 0.1595 | 0.892 | 0.8295 | 0.7764 | 0.7199
x1 = 0.2105 | 0.9695 | 0.907 | 0.8473 | 0.7968
